Results published in patent publication US20250122174A1 (Shenzhen Yuanli Shenwan Innovative Medicine Co., Ltd., priority 2022, published 2025).
pIC50: −log10 of the molar value.

Each molecule was assayed against HPK1 (Homo sapiens (Human), UniProt Q92918) (assay: HPK1 Inhibition Assay (ADP-Glo kinase assay)). Conditions: ATP 10 μM.
Type: biochemical
How it was run: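 ADP-Glo luminescence read-out after 1 h room-temperature kinase reaction with 10 μM ATP and 0.1 μg/ml MBP. Recombinant human HPK1 at 7.5 ng/μl; buffer 40 mM Tris pH 7.5, 20 mM MgCl2. Compounds serially diluted 5-fold over 10 points from 10 mM DMSO stock.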

Sequence of HPK1 (Q92918 1-346 limits assumed): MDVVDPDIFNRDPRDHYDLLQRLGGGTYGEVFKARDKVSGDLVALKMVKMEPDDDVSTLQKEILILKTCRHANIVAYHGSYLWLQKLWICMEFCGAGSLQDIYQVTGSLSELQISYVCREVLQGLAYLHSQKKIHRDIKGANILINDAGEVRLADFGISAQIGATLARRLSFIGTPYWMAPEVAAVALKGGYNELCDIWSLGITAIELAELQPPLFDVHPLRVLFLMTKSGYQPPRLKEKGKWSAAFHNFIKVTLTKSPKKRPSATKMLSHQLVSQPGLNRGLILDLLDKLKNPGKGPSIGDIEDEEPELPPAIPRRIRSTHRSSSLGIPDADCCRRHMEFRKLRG

pIC50, > 7.00:
C[C@@H]1CN(c2c(NC(=O)c3ccc(=O)n(-c4c(F)cccc4F)n3)ccc3nn(C4CCCC4)cc23)C[C@@H]1N [Example 333, N-(4-((3R,4R)-3-amino-4-methylpyrrolidin-1-yl)-2-cyclopentyl-2H-indazol-5-yl)-1-(2,6-difluorophenyl)-6-oxo-1,6-dihydropyridazine-3-carboxamide]
CC1(C)CN(c2c(NC(=O)c3ccc(=O)n(-c4c(F)cccc4F)n3)ccc3nn(C4CC4)cc23)C[C@@H]1N [Example 334, (R)-N-(4-(4-amino-3,3-dimethylpyrrolidin-1-yl)-2-cyclopropyl-2H-indazol-5-yl)-1-(2,6-difluorophenyl)-6-oxo-1,6-dihydropyridazine-3-carboxamide]
CC1(C)CN(c2c(NC(=O)c3ccc(=O)n(-c4c(F)cccc4F)n3)ccc3nn(C4CC4)cc23)C[C@H]1N [Example 335, (S)-N-(4-(4-amino-3,3-dimethylpyrrolidin-1-yl)-2-cyclopropyl-2H-indazol-5-yl)-1-(2,6-difluorophenyl)-6-oxo-1,6-dihydropyridazine-3-carboxamide]
N[C@H]1CN(c2c(NC(=O)c3ccc(=O)n(-c4c(F)cccc4F)n3)ccc3nn(C4CC4)cc23)CC12CC2 [Example 336, (R)-N-(4-(7-amino-5-azaspiro[2.4]heptan-5-yl)-2-cyclopropyl-2H-indazol-5-yl)-1-(2,6-difluorophenyl)-6-oxo-1,6-dihydropyridazine-3-carboxamide]
N[C@@H]1CCN(c2c(NC(=O)c3ccc(=O)n(-c4c(F)cccc4F)n3)ccc3nn(C4CCOCC4)cc23)C1 [Example 337, (R)-N-(4-(3-aminopyrrolidin-1-yl)-2-(tetrahydro-2H-pyran-4-yl)-2H-indazol-5-yl)-1-(2,6-difluorophenyl)-6-oxo-1,6-dihydropyridazine-3-carboxamide]
N[C@@H]1CCN(c2c(NC(=O)c3ccc(=O)n(-c4c(F)cccc4F)n3)ccc3nn(CC(F)(F)F)cc23)C1 [Example 338, (R)-N-(4-(3-aminopyrrolidin-1-yl)-2-(2,2,2-trifluoroethyl)-2H-indazol-5-yl)-1-(2,6-difluorophenyl)-6-oxo-1,6-dihydropyridazine-3-carboxamide]
[2H]C([2H])([2H])C(n1cc2c(N3C[C@H](N)C4(CC4)C3)c(NC(=O)c3ccc(=O)n(-c4c(F)cccc4F)n3)ccc2n1)C([2H])([2H])[2H] [Example 339]
CC(C)n1nnc2c(N3C[C@H](N)C4(CC4)C3)c(NC(=O)c3ccc(=O)n(-c4c(F)cccc4F)n3)ccc21 [Example 340, 1-(2,6-difluorophenyl)-N-{4-[(7R)-7-amino-5-azaspiro[2.4]heptan-5-yl]-1-(prop-2-yl)benzo[d][1,2,3]triazol-5-yl}-6-oxo-1,2-diazine-3-carboxamide]
CC(C)n1nnc2c(N3C[C@@H](C)[C@@H](N)C3)c(NC(=O)c3ccc(=O)n(-c4c(F)cccc4F)n3)ccc21 [Example 341, N-(4-((3R,4R)-3-amino-4-methylpyrrolidin-1-yl)-1-isopropyl-1H-benzo[d][1,2,3]triazol-5-yl)-1-(2,6-difluorophenyl)-6-oxo-1,6-dihydropyridazine-3-carboxamide]
N#Cc1ccncc1-c1ccc(NC(=O)c2ccc(=O)n(-c3c(F)cccc3F)n2)c(N2CCNCC2)c1 [Example 342, N-(4-(4-cyanopyridin-3-yl)-2-(piperazin-1-yl)phenyl)-1-(2,6-difluorophenyl)-6-oxo-1,6-dihydropyridazine-3-carboxamide]
N#Cc1ccncc1-c1ccc(NC(=O)c2ccc(=O)n(-c3c(F)cccc3F)n2)c(N2CC[C@@H](N)C2)c1 [Example 343, (R)-N-(2-(3-aminopyrrolidin-1-yl)-4-(4-cyanopyridin-3-yl)phenyl)-1-(2,6-difluorophenyl)-6-oxo-1,6-dihydropyridazine-3-carboxamide]
N#Cc1ccncc1-c1ccc(NC(=O)c2ccc(=O)n(-c3c(F)cccc3F)n2)c(N2CC[C@H](N)C2)c1 [Example 344, (S)-N-(2-(3-aminopyrrolidin-1-yl)-4-(4-cyanopyridin-3-yl)phenyl)-1-(2,6-difluorophenyl)-6-oxo-1,6-dihydropyridazine-3-carboxamide]
N#Cc1ccncc1-c1ccc(NC(=O)c2ccc(=O)n(-c3c(F)cccc3F)n2)c(N2CCC[C@@H](N)C2)c1 [Example 345, (R)-N-(2-(3-aminopiperidin-1-yl)-4-(4-cyanopyridin-3-yl)phenyl)-1-(2,6-difluorophenyl)-6-oxo-1,6-dihydropyridazine-3-carboxamide]
N#Cc1ccncc1-c1ccc(NC(=O)c2ccc(=O)n(-c3c(F)cccc3F)n2)c(N2CCC(N)CC2)c1 [Example 346, N-(2-(4-aminopiperidin-1-yl)-4-(4-cyanopyridin-3-yl)phenyl)-1-(2,6-difluorophenyl)-6-oxo-1,6-dihydropyridazine-3-carboxamide]
N#Cc1ccncc1-c1ccc(NC(=O)c2ccc(=O)n(-c3c(F)cccc3F)n2)c(N2C[C@@H](N)C[C@H]2CO)c1 [Example 347, N-(2-((2S,4S)-4-amino-2-(hydroxymethyl)pyrrolidin-1-yl)-4-(4-cyanopyridin-3-yl)phenyl)-1-(2,6-difluorophenyl)-6-oxo-1,6-dihydropyridazine-3-carboxamide]
C[C@]1(N)CCN(c2cc(-c3cnccc3C#N)ccc2NC(=O)c2ccc(=O)n(-c3c(F)cccc3F)n2)C1 [Example 348, (S)-N-(2-(3-amino-3-methylpyrrolidin-1-yl)-4-(4-cyanopyridin-3-yl)phenyl)-1-(2,6-difluorophenyl)-6-oxo-1,6-dihydropyridazine-3-carboxamide]
N#Cc1ccncc1-c1ccc(NC(=O)c2ccc(=O)n(-c3c(F)cccc3F)n2)c(N2CCC(O)CC2)c1 [Example 349, N-(4-(4-cyanopyridin-3-yl)-2-(4-hydroxypiperidin-1-yl)phenyl)-1-(2,6-difluorophenyl)-6-oxo-1,6-dihydropyridazine-3-carboxamide]
N#Cc1ccncc1-c1ccc(NC(=O)c2ccc(=O)n(-c3c(F)cccc3F)n2)c(N2CCN[C@H](CO)C2)c1 [Example 350, (S)-N-(4-(4-cyanopyridin-3-yl)-2-(3-(hydroxymethyl)piperazin-1-yl)phenyl)-1-(2,6-difluorophenyl)-6-oxo-1,6-dihydropyridazine-3-carboxamide]
N#Cc1ccncc1-c1ccc(NC(=O)c2ccc(=O)n(-c3c(F)cccc3F)n2)c(N2C[C@H](N)C[C@H]2CO)c1 [Example 351, N-(2-((2S,4R)-4-amino-2-(hydroxymethyl)pyrrolidin-1-yl)-4-(4-cyanopyridin-3-yl)phenyl)-1-(2,6-difluorophenyl)-6-oxo-1,6-dihydropyridazine-3-carboxamide]
N#Cc1ccncc1-c1ccc(NC(=O)c2ccc(=O)n(-c3c(F)cccc3F)n2)c(N2CCC(N)(CO)CC2)c1 [Example 352, N-(2-(4-amino-4-(hydroxymethyl)piperidin-1-yl)-4-(4-cyanopyridin-3-yl)phenyl)-1-(2,6-difluorophenyl)-6-oxo-1,6-dihydropyridazine-3-carboxamide]
N#Cc1ccncc1-c1ccc(NC(=O)c2ccc(=O)n(-c3c(F)cccc3F)n2)c(N2CCC(F)(F)[C@@H](N)C2)c1 [Example 357, (S)-N-(2-(3-amino-4,4-difluoropiperidin-1-yl)-4-(4-cyanopyridin-3-yl)phenyl)-1-(2,6-difluorophenyl)-6-oxo-1,6-dihydropyridazine-3-carboxamide]
N#Cc1ccncc1-c1ccc(NC(=O)c2ccc(=O)n(-c3c(F)cccc3F)n2)c(N2CCC(NCCO)CC2)c1 [Example 360, N-(4-(4-cyanopyridin-3-yl)-2-(4-((2-hydroxyethyl)amino)piperidin-1-yl)phenyl)-1-(2,6-difluorophenyl)-6-oxo-1,6-dihydropyridazine-3-carboxamide]
N#Cc1ccncc1-c1ccc(NC(=O)c2ccc(=O)n(-c3c(F)cccc3Cl)n2)c(N2C[C@@H](N)C[C@H]2CO)c1 [Example 361, N-(2-((2S,4S)-4-amino-2-(hydroxymethyl)pyrrolidin-1-yl)-4-(4-cyanopyridin-3-yl)phenyl)-1-(2-chloro-6-fluorophenyl)-6-oxo-1,6-dihydropyridazine-3-carboxamide]
